Measured values reported in patent US20220062240A1, “METHODS OF TREATING CANCER USING A CLK INHIBITOR” (BioSplice Therapeutics, Inc., priority 2018, published 2022).
Like-named read-outs stand apart in the source and are kept apart here.

What was measured:
CLK2 = target: T1, CLK2 (Homo sapiens, UniProt P49760); experiment: CLK2 kinase activity assay (Z-lyte, Ser/Thr 6 peptide); type: biochemical; settings: recombinant CLK2 kinase, ATP 60 μM; read-out: EC50
T1 construct: purchased Thermo Fisher (Life Technologies), Z'-LYTE Kinase Assay Kits
T1 sequence (P49760 whole entry): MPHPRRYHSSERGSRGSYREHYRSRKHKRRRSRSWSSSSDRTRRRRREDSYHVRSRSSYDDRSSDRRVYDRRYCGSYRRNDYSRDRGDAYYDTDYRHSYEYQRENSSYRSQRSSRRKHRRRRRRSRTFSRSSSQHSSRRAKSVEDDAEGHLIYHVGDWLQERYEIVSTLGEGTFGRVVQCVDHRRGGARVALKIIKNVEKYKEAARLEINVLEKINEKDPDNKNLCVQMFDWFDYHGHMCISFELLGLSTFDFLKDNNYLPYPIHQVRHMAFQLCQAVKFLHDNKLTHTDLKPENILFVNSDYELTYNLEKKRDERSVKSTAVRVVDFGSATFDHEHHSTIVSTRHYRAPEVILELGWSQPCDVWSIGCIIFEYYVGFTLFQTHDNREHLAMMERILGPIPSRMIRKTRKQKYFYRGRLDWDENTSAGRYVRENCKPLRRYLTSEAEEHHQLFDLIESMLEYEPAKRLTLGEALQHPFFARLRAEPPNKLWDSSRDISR
Experimental: All reactions were performed in duplicate.

BT-549 = experiment: CellTiter-Glo Viability Assay, breast cancer; type: cell-based; settings: Homo sapiens, 96 h; BT-549, breast cancer, four days; read-out: EC50
CAMA1 = experiment: CellTiter-Glo Viability Assay, breast cancer; type: cell-based; settings: Homo sapiens, CAMA-1, 96 h; CAMA1, breast cancer, four days; read-out: EC50
DU4475 = experiment: CellTiter-Glo Viability Assay, breast cancer; type: cell-based; settings: Homo sapiens, DU-4475, 96 h; DU4475, breast cancer, four days; read-out: EC50
HCC1599 = experiment: CellTiter-Glo Viability Assay, breast cancer; type: cell-based; settings: Homo sapiens, 96 h; HCC1599, breast cancer, four days; read-out: EC50
MCF7 = experiment: CellTiter-Glo Viability Assay, breast cancer; type: cell-based; settings: Homo sapiens, 96 h; MCF7, breast cancer, four days; read-out: EC50
MDA-MB-231-Luc = experiment: CellTiter-Glo Viability Assay, breast cancer; type: cell-based; settings: Homo sapiens, 96 h; MDA-MB-231-Luc, breast cancer, four days; read-out: EC50
T47D = experiment: CellTiter-Glo Viability Assay, breast cancer; type: cell-based; settings: Homo sapiens, 96 h, breast cancer, four days, read-out: EC50
ZR-75-1 = experiment: CellTiter-Glo Viability Assay, breast cancer; type: cell-based; settings: Homo sapiens, 96 h; ZR-75-1, breast cancer, four days; read-out: EC50
all 50 cell lines = experiment: CellTiter-Glo Viability Assay, average across all cell lines; type: cell-based; settings: Homo sapiens; across all 50 cell lines; read-out: average EC50 for inhibition of cancer cell proliferation
Outline: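 Luminescent ATP read-out (CellTiter-Glo) after a 4-day compound exposure at 37° C served as the viability measure. Cells were seeded at 300-3,000/well, compound wells run in duplicate against DMSO controls, and EC50 values came from fitted dose-response curves.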

[1] = test system: colorectal cancer (6 cell lines); experiment: CellTiter-Glo Viability Assay, colorectal cancer; type: cell-based; settings: Homo sapiens, inhibition of cancer cell proliferation
[2] = test system: haematopoietic & lymphoid tumors (13 cell lines); experiment: CellTiter-Glo Viability Assay, haematopoietic & lymphoid tumors; type: cell-based; settings: Homo sapiens, inhibition of cancer cell proliferation
[3] = test system: liver cancer (3 cell lines); experiment: CellTiter-Glo Viability Assay, liver cancer; type: cell-based; settings: Homo sapiens, inhibition of cancer cell proliferation
[4] = test system: lung cancer (4 cell lines); experiment: CellTiter-Glo Viability Assay, lung cancer; type: cell-based; settings: Homo sapiens, inhibition of cancer cell proliferation
[5] = test system: ovarian cancer (4 cell lines); experiment: CellTiter-Glo Viability Assay, ovarian cancer; type: cell-based; settings: Homo sapiens, inhibition of cancer cell proliferation
[6] = test system: pancreatic cancer (8 cell lines); experiment: CellTiter-Glo Viability Assay, pancreatic cancer; type: cell-based; settings: Homo sapiens, inhibition of cancer cell proliferation
[7] = test system: prostate cancer (5 cell lines); experiment: CellTiter-Glo Viability Assay, prostate cancer; type: cell-based; settings: Homo sapiens
CLK3 = CLK3 (Homo sapiens, UniProt P49761); experiment: CLK3 kinase activity assay (Z-lyte, Ser/Thr 18 peptide)
Sequence of CLK3 (P49761 whole entry): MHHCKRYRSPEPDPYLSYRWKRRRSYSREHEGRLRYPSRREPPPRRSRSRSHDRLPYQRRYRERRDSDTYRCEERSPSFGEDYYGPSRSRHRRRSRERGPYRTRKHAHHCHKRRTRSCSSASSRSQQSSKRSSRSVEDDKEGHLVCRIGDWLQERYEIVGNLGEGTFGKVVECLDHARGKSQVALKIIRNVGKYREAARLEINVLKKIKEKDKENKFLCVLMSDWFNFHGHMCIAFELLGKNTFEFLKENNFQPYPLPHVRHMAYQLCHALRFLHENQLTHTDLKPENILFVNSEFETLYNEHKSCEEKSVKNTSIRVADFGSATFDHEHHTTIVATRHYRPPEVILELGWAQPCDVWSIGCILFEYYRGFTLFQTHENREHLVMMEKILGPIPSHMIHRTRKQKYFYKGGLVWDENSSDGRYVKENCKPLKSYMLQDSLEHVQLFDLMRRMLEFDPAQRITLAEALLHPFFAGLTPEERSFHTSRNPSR

EC50 (CLK2): 1.9 nM | EC50 (BT-549): 812 nM | EC50 (CAMA1): > 3.5 µM | EC50 (DU4475): 2800 nM | EC50 (HCC1599): 860 nM | EC50 (MCF7): > 3.5 µM | EC50 (MDA-MB-231-Luc): > 3.5 µM | EC50 (T47D): > 3.5 µM | EC50 (ZR-75-1): > 3.5 µM | EC50 ([1]; HCT-116, HCT116 cell line, read-out: Colorectal cancer, EC50 (μM) HCT116): > 3.5 µM | EC50 ([1]; HT-29, HT29 cell line, read-out: Colorectal cancer, EC50 (μM) HT29): > 3.5 µM | EC50 ([1]; SW-620, SW620 cell line, read-out: Colorectal cancer, EC50 (μM) SW620): 1.97 µM | EC50 ([1]; DLD-1 cell line, read-out: Colorectal cancer, EC50 (μM) DLD-1): > 3.5 µM | EC50 ([1]; SW48 cell line, read-out: Colorectal cancer, EC50 (μM) SW48): > 3.5 µM | EC50 ([1]; SW480 cell line, read-out: Colorectal cancer, EC50 (μM) SW480): > 3.5 µM | EC50 ([2]; DND41, DND-41 cell line, read-out: Haematopoietic & Lymphoid tumors, EC50 (μM) DND-41): 0.776 µM | EC50 ([2]; MV4-11, MV-4-11 cell line, read-out: Haematopoietic & Lymphoid tumors, EC50 (μM) MV-4-11): 0.094 µM | EC50 ([2]; Rec1, REC-1 cell line, read-out: Haematopoietic & Lymphoid tumors, EC50 (μM) REC-1): > 3.5 µM | EC50 ([2]; SU-DHL-4, SUDHL4 cell line, read-out: Haematopoietic & Lymphoid tumors, EC50 (μM) SUDHL4): 0.983 µM | EC50 ([2]; HL-60 cell line, read-out: Haematopoietic & Lymphoid tumors, EC50 (μM) HL-60): > 3.5 µM | EC50 ([2]; JM1 cell line, read-out: Haematopoietic & Lymphoid tumors, EC50 (μM) JM1): 0.952 µM | EC50 ([2]; JURKAT, Clone E6-1 cell line, read-out: Haematopoietic & Lymphoid tumors, EC50 (μM) JURKAT, Clone E6-1): > 3.5 µM | EC50 ([2]; JeKo-1 cell line, read-out: Haematopoietic & Lymphoid tumors, EC50 (μM) JeKo-1): 0.357 µM | EC50 ([2]; KASUMI-1 cell line, read-out: Haematopoietic & Lymphoid tumors, EC50 (μM) KASUMI-1): 0.711 µM | EC50 ([2]; Loucy cell line, read-out: Haematopoietic & Lymphoid tumors, EC50 (μM) Loucy): 1.36 µM | EC50 ([2]; MOLT-4 cell line, read-out: Haematopoietic & Lymphoid tumors, EC50 (μM) MOLT-4): > 3.5 µM | EC50 ([2]; TF-1 cell line, read-out: Haematopoietic & Lymphoid tumors, EC50 (μM) TF-1): > 3.5 µM | EC50 ([2]; TOLEDO cell line, read-out: Haematopoietic & Lymphoid tumors, EC50 (μM) TOLEDO): 0.869 µM | EC50 ([3]; SNU-398, SNU398 cell line, read-out: Liver cancer, EC50 SNU398): 605 nM | EC50 ([3]; HEPG2 cell line, read-out: Liver cancer, EC50 HEPG2): > 3500 nM | EC50 ([3]; PLC/PRF/5 cell line, read-out: Liver cancer, EC50 PLC/PRF/5): > 3500 nM | EC50 ([4]; A-427, A427 cell line, read-out: Lung cancer, EC50 (μM) A427): 3.1 µM | EC50 ([4]; HCC78, HCC-78 cell line, read-out: Lung cancer, EC50 (μM) HCC-78): > 3.5 µM | EC50 ([4]; NCI-H460 cell line, read-out: Lung cancer, EC50 (μM) NCI-H460): > 3.5 µM | EC50 ([4]; NCI-H522 cell line, read-out: Lung cancer, EC50 (μM) NCI-H522): 2.47 µM | EC50 ([5]; PA-1, PA1 cell line, read-out: Ovarian cancer, EC50 (μM) PA1): > 3.5 µM | EC50 ([5]; TOV112D, TOV-112D cell line, read-out: Ovarian cancer, EC50 (μM) TOV-112D): > 3.5 µM | EC50 ([5]; OV-90 cell line, read-out: Ovarian cancer, EC50 (μM) OV-90): > 3.5 µM | EC50 ([5]; OVCAR-3 cell line, read-out: Ovarian cancer, EC50 (μM) OVCAR-3): 0.766 µM | EC50 ([6]; BXPC-3, BxPC3 cell line, read-out: Pancreatic cancer, EC50 BxPC3): > 3.5 µM | EC50 ([6]; CAPAN-1, Capan1 cell line, read-out: Pancreatic cancer, EC50 Capan1): > 3.5 µM | EC50 ([6]; Capan-2, Capan2 cell line, read-out: Pancreatic cancer, EC50 Capan2): > 3.5 µM | EC50 ([6]; MIA PaCa-2 cell line, read-out: Pancreatic cancer, EC50 MIA PaCa-2): 1.69 µM | EC50 ([6]; PANC 05.04 cell line, read-out: Pancreatic cancer, EC50 PANC 05.04): > 3.5 µM | EC50 ([6]; PANC-1 cell line, read-out: Pancreatic cancer, EC50 PANC-1): > 3.5 µM | EC50 ([6]; UPAFII cell line, read-out: Pancreatic cancer, EC50 UPAFII): > 3.5 µM | EC50 ([7]; DU-145, read-out: Prostate cancer EC50 Du-145): > 3.5 µM | EC50 ([7]; PC-3, PC3 cell line, inhibition of cancer cell proliferation, read-out: Prostate cancer EC50 PC3): 3.36 µM | EC50 ([7]; 22Rv1 cell line, inhibition of cancer cell proliferation, read-out: Prostate cancer EC50 22Rv1): > 3.5 µM | EC50 ([7]; LNCap clone FGC cell line, inhibition of cancer cell proliferation, read-out: Prostate cancer EC50 LNCap clone FGC): > 3.5 µM | EC50 ([7]; VCaP (Sigma) cell line, inhibition of cancer cell proliferation, read-out: Prostate cancer EC50 VCaP (Sigma)): > 3.5 µM | EC50 (CLK3): 28.1 nM
Compound: O=C1CCc2cccc(c2)-c2cncc3[nH]c(nc23)-c2n[nH]c3ccc(cc23)-c2cncc(c2)N1 [Compound 55]
EC50 (all 50 cell lines): 6.89 µM
